# Source: patent publication US4983740A, “Process for 1,4-dihydropyridine compounds” (Adir et Compagnie, priority 1986, dated 1991)
# Counter-ions that a name gives are not always drawn.
# Key:
# rat aorta = test: In vitro activity in rat aorta stimulated by potassium ions; format: cell-based, rat (male Wistar); settings: 1 h; rat aorta rings, KCl 80 mM stimulation, cumulative doses at 60 minutes intervals
# Description: Determination of the Vitro Activity in Rat Aorta Stimulated by Potassium Ions
# This trial was carried out using isolated organs removed from male Wistar rats weighing 300 to 400 g, kept under a water diet 18 hours before sacrificing.
# After quickly sacrificing the animal, the aorta (at the level of the arch of the aorta) is removed and dissected into 2 mm-long rings; the endothelium is removed mechanically. After an equilibration period of 1 hour in a physiological solution consisting of (mM): NaCl 112, KCl 5, KH2 PO4 1, MgSO4 1.2, CaCl2 2.5, NaHCO3 25 and glucose 11.5, the preparations are stimulated with a potassium-rich solution. The latter consists of (mM):NaCl 37, KCl 80, KH2 PO4 1, MgSO4 1.2, CaCl2 2.5, NaHCO3 25 and glucose 11.5. This solution has a pH of 7.4 at 37° C.
# After 15 minutes of stabilization, the compounds to be tested are then added (sample volume 0.2 ml) at cumulative doses at 60 minutes intervals. From the relaxation values obtained, it is possible to construct a doseresponse curve, leading to the calculation of an IC50 value (expressed in M).
# [1] = tested on: conscious spontaneous hypertensive rats (SHR); test: Short-term studies in conscious spontaneous hypertensive rats (oral, systolic arterial pressure); format: in vivo, rat (SHR); settings: 3 mg/kg
# Description: Short-term Studies in Conscious Spontaneous Hypertensive Rats (SHR)
# Male spontaneous hypertensive rats weighing 270 to 320 g, aged 16 to 24 weeks, are anesthetized with ether. A polyethylene catheter is introduced into the femoral artery and moved forward to the level of the tail. The pressure in the femoral artery is recorded with a Statham® P23 sensor, on a Gould® 2400 recorder. The animals are treated at least one hour after the operation. The compounds are administered orally, in the dissolved form. The doses administered are expressed in mg/kg of base. The compounds of the invention were compared with amlodipine and with another 1,4-dihydropyridine derivative reference compound, nifedipine.
IC50 (rat aorta) [nM],SMILES,"Systolic arterial pressure after treatment, Δ mm Hg, 4 h [1] [mm Hg]","Systolic arterial pressure after treatment, Δ mm Hg, 6 h [1] [mm Hg]"
6.5,"C=CCN(CC=C)CCOCCOCC1=C(C(=O)OCC)C(c2ccccc2Cl)C(C(=O)OC)=C(C)N1 (racemic) [EXAMPLE 8, (4R,S)-4-(2-Chlorophenyl)-2-[{2-[2-(N,N-diallylamino)ethoxy]ethoxy}methyl]-3-ethoxycarbonyl-5-methoxycarbonyl-6-methyl-1,4-dihydropyridine hemifumarate]",-21,-19
,"COC(=O)C1=C(C)NC(C)=C(C(=O)OC)C1c1ccccc1[N+](=O)[O-] [NIFEDIPINE, nifedipine, reference compound]",-19,-25
310,"COC(=O)C1=C(C)NC(COCCOCCN)=C(C(=O)OC(C)C)C1c1c(F)c(F)c(F)c(F)c1F (racemic) [EXAMPLE 26, (4R,S)-2-{[2-(2-Aminoethoxy)ethoxy]methyl}-3-isopropoxycarbonyl-5-methoxycarbonyl-6-methyl-4-pentafluorophenyl-1,4-dihydropyridine tartrate]",,
40,"CCOC(=O)C1=C(CCCCCN)NC(C)=C(C(=O)OC)C1c1ccccc1Cl (racemic) [EXAMPLE 14, (4R,S)-2-(5-Aminopentyl)-4-(2-chlorphenyl)-3-ethoxycarbonyl-5-methoxycarbonyl-6-methyl-1,4-dihydropyridine citrate]",,
200,"COC(=O)C1=C(C)NC(COCCOCCN)=C(C(=O)OCc2ccc([N+](=O)[O-])cc2)C1c1c(F)c(F)c(F)c(F)c1F (racemic) [EXAMPLE 23, (4R,S)-2-{[2-(2-Aminoethoxy)ethoxy]methyl}-3-(4-nitrobenzyloxycarbonyl)-5-methoxy-6-methyl-4-pentafluorophenyl-1,4-dihydropyridine tartrate]",,
61,"CCCNCCOCCOCC1=C(C(=O)OCC)C(c2c(F)c(F)c(F)c(F)c2F)C(C(=O)OCC)=C(C)N1 (racemic) [EXAMPLE 16, (4R,S)-3,5-Diethoxycarbonyl-6-methyl-4-pentafluorophenyl-2-[{2-[2-(N-propylamino)ethoxy]ethoxy}methyl]-1,4-dihydropyridine oxalate]",,
7.6,"CCOC(=O)C1=C(COCCOCCN)NC(C)=C(C(=O)OC)C1c1ccccc1C(F)(F)F (racemic) [EXAMPLE 17, (4R,S)-2-{[2-(2-Aminoethoxy)ethoxy]methyl}-3-ethoxycarbonyl-5-methoxycarbonyl-6-methyl-4-(2-trifluoromethylphenyl)-1,4-dihydropyridine fumarate]",,
26,"CCOC(=O)C1=C(C)NC(COCCOCCN)=C(C(=O)OC)C1c1c(F)c(F)c(F)c(F)c1F (racemic) [EXAMPLE 20, (4R,S)-2-{[2-(2-Aminoethoxy)ethoxy]methyl}-5-ethoxycarbonyl-3-methoxycarbonyl-6-methyl-4-pentafluorophenyldihydropyridine tartrate]",,
21,"COC(=O)C1=C(C)NC(COCCOCCN)=C(C(=O)OC(C)C)C1c1cccc(C(F)(F)F)c1Cl (racemic) [EXAMPLE 35, (4R,S)-2-{[2-(2-Aminoethoxy)ethoxy]methyl}-4-(2-chloro-3-trifluoromethylphenyl)-3-isopropoxycarbonyl-5-methoxycarbonyl-6-methyl-1,4-dihydropyridine tartrate]",,
30,"CCOC(=O)C1=C(COCCOCCN)NC(C)=C(C(=O)OC)C1c1cccc2c1OCO2 (racemic) [EXAMPLE 2, (4R,S)-2-{[2-(2-Aminoethoxy)ethoxy]methyl}-3-ethoxycarbonyl-5-methoxycarbonyl-6-methyl-4-(2,3-methylenedioxyphenyl)-1,4-dihydropyridine]",-13,-16
